Data: patent US11168058B2, “Manufacture of a crystalline pharmaceutical product” (ORION CORPORATION, priority 2017, dated 2021)

Key:
Type in all cases: physicochemical
[1] = Particle size distribution by laser light diffraction (Beckman Coulter LS13320, dry powder); settings: for Volume particle size, Dv10 / Volume particle size, Dv50 / Volume particle size, Dv90: before/after milling
Description: The particle size distribution of crystalline particles of compound (I) can be analyzed by laser light diffraction, for example using Beckman Coulter LS13320 laser diffraction particle size analyzer equipped with Tornado Dry Powder System using air as dispersion medium with measurement pressure 24″H2O±2″H2O, sample amount 10 ml, system controlled target 5% for obscuration and applying Fraunhofer optical model.
The parameters considered are the volumetric diameters in μm of the 10th, 50th and 90th percentiles of the particles, expressed as Dv10, Dv50 and Dv90 respectively, which are determined by assuming that the particles have a geometric shape equivalent to a sphere.
The particle size distribution of the crystalline rounded particles of compound (I) prepared according to the present invention was determined by laser light diffraction. The determination was carried out by using Beckman Coulter LS13320 laser diffraction particle size analyzer equipped with Tornado Dry Powder System using air as dispersion medium with measurement pressure 24″H2O±2″H2O, sample amount 10 ml, system controlled target 5% for obscuration and applying Fraunhofer optical model. According to the analysis, Dv10 value of the particles is 359 μm, Dv50 is 632 μm and Dv90 is 925 μm.
(§1) The specific surface area (SSA) and particle size distribution (PSD) were determined for two batches (A and B) of crystalline rounded particles of compound (I) prepared according to the present invention. The particles of the two batches were then milled followed by the determination of SSA and PSD.

[2] = Specific surface area (SSA) by three-point nitrogen adsorption (BET), TriStar 3000; settings: for SSA: Table 1, batch A; for SSA / Specific surface area: crystalline rounded particles before/after milling; for Specific surface area: Table 2, batch B
Description: The specific surface area (SSA) of crystalline particles of compound (I) can be analyzed using the three-point nitrogen adsorption technique based on the Brunauer, Emmett and Teller (BET) theory, for example using TriStar 3000 automated gas adsorption analyzer, (Micromeritics, Inc.). The samples are suitably vacuum dried for 20 hours at 40° C. The volumetric method can be used at the relative pressure range of 0.1-0.3 P/P0.
as §1
The specific surface area was measured using the three-point nitrogen adsorption technique based on the Brunauer, Emmett and Teller (BET) theory using TriStar 3000 automated gas adsorption analyzer (Micromeritics, Inc.). The samples were vacuum dried for 20 hours in 40° C. The volumetric method was applied at the relative pressure range 0.1-0.3 P/P0.

[3] = Solubility in water (statement)
[4] = Example 4, crystalline rounded particles, FIG. 1

Volume particle size, Dv10 ([1]; Table 1, batch A)	Volume particle size, Dv50 ([1]; Table 1, batch A)	Volume particle size, Dv90 ([1]; Table 1, batch A)	SSA [2]	Volume particle size, Dv10 ([1]; Table 2, batch B)	Volume particle size, Dv50 ([1]; Table 2, batch B)	Volume particle size, Dv90 ([1]; Table 2, batch B)	Specific surface area [2]	further results	Compound
2 μm	36 μm	218 μm	14 m^2/g	–	–	–	–	–	CC(O)c1cc(C(=O)N[C@@H](C)Cn2ccc(-c3ccc(C#N)c(Cl)c3)n2)n[nH]1 (stereo partly drawn) [A (milled)]
–	–	–	–	176 μm	389 μm	826 μm	12 m^2/g	–	CC(O)c1cc(C(=O)N[C@@H](C)Cn2ccc(-c3ccc(C#N)c(Cl)c3)n2)n[nH]1 (stereo partly drawn) [B (unmilled)]
171 μm	407 μm	625 μm	13 m^2/g	–	–	–	–	–	CC(O)c1cc(C(=O)N[C@@H](C)Cn2ccc(-c3ccc(C#N)c(Cl)c3)n2)n[nH]1 (stereo partly drawn) [A (unmilled)]
–	–	–	–	–	–	–	–	Dv10 [1, 4]: 359 μm; Dv50 [1, 4]: 632 μm; Dv90 [1, 4]: 925 μm; Solubility in water [3]: poorly soluble in water; Change of specific surface area (SSA) on milling to reduced particle size ([2]; batches A and B, milled vs unmilled): did not significantly change	CC(O)c1cc(C(=O)N[C@@H](C)Cn2ccc(-c3ccc(C#N)c(Cl)c3)n2)n[nH]1 (stereo partly drawn) [compound (I), N—((S)-1-(3-(3-chloro-4-cyanophenyl)-1H-pyrazol-1-yl)-propan-2-yl)-5-(1-hydroxyethyl)-1H-pyrazole-3-carboxamide]
–	–	–	–	3 μm	96 μm	292 μm	13 m^2/g	–	CC(O)c1cc(C(=O)N[C@@H](C)Cn2ccc(-c3ccc(C#N)c(Cl)c3)n2)n[nH]1 (stereo partly drawn) [B (milled)]
